Measured values as given in ChEMBL document CHEMBL1201862, “PubChem BioAssay data set” (2004).
Activity calls are given as the source filed them.

What was measured:
[1] = target: T1, Sentrin-specific protease 8 (Homo sapiens, UniProt Q96LD8); assay type: functional
T1 sequence (Q96LD8 whole entry): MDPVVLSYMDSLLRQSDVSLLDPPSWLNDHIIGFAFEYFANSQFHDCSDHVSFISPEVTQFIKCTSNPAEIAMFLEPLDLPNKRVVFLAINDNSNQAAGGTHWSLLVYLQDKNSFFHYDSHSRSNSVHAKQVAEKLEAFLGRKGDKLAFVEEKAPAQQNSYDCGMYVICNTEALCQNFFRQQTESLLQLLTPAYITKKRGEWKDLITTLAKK

[2] = target: T1, Sentrin-specific protease 8; assay type: functional; remark: listed apart in the source
Caspase-3 = target: T2, Caspase-3 (Homo sapiens, UniProt P42574); experiment: Dose-response confirmation of uHTS inhibitor hits of Sentrin-Specific Protease 8 in a Caspase-3 Fluorescence assay.; assay type: functional
T2 sequence (P42574 whole entry): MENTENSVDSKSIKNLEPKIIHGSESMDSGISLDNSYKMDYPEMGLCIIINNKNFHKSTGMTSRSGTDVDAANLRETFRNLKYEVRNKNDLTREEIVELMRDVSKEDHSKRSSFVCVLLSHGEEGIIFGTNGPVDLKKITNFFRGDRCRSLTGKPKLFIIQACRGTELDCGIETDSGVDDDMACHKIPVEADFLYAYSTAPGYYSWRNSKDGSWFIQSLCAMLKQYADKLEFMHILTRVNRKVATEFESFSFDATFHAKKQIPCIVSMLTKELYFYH

[3] = target: T3, Botulinum neurotoxin type A (Clostridium botulinum (strain Hall / ATCC 3502 / NCTC 13319 / Type A), UniProt P0DPI1); experiment: High-throughput multiplex microsphere dose response for inhibitors of toxin protease, specifically Botulinum neurotoxin light chain A protease, compounds from Powder Set 01.; assay type: functional, Clostridium botulinum A str. ATCC 3502; settings: read-out: EC50_MICROM
[4] = target: T3, Botulinum neurotoxin type A; experiment: Confirmatory FRET assay using full length substrates for Botulinum neurotoxin light chain A protease, with Powder Set01.; assay type: functional
Lethal factor = Lethal factor (Bacillus anthracis, UniProt P15917); experiment: High-throughput multiplex microsphere dose response for inhibitors of toxin protease, specifically Lethal Factor protease, compounds from Powder Set 01.; assay type: functional, Bacillus anthracis str. A2012; settings: read-out: EC50_MICROM
[5] = target: Botulinum neurotoxin type F (Clostridium botulinum, UniProt P30996); experiment: High-throughput multiplex microsphere dose response for inhibitors of toxin protease, specifically Botulinum neurotoxin light chain F protease, compounds from Powder Set 01.; assay type: functional, Clostridium botulinum Bf; settings: read-out: EC50_MICROM
BJ [6] = experiment: cytotoxicity toward BJ-TERT fibroblasts, dose response, cell-based, RAS-independent, luminescence (AID 1933); assay type: functional; settings: Homo sapiens
[7] = HEK293T cell cytotoxicity, dose response, cytotoxicity control for HIV Vif inhibitor project, cherry-picks (AID 652208); assay type: functional, cell-based
BJ [8] = experiment: cytotoxicity toward BJ-TERT-LT-ST fibroblasts, dose response, cell-based, RAS-independent, luminescence (AID 1935); assay type: functional; settings: Homo sapiens;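 also: BJ fibroblasts immortalized with TERT plus LT and ST oncogenes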
BJ [9] = experiment: cytotoxicity toward Ras-transformed BJeLR fibroblasts, dose response, cell-based, alamar blue fluorescence, cherrypicked samples (AID 2631); assay type: functional; settings: Homo sapiens;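 also: confirmatory dose-response assay in RAS-dependent BJ fibroblasts engineered with TERT, LT and ST, with cytotoxicity read by fluorescence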
[10] = HepG2 cell cytotoxicity, dose response, cytotoxicity control for Shn3 inhibitor project, CellTiter-Glo, cherry-picked (AID 624134); assay type: functional, cell-based
[11] = cytotoxicity toward DRD oncogenic fibroblasts, dose response, cell-based, non-viral oncogenic, luminescence (AID 1934); assay type: functional; settings: Homo sapiens
[12] = control 3'UTR Renilla luciferase suppression, dose response, counter-screen for Shn3 inhibitor project, cell-based, Clone20-Shn3RL, cherry-picked (AID 624133); assay type: functional
[13] = target: T4, Rac GTPase-activating protein 1 (Homo sapiens, UniProt Q9H0H5); experiment: MgcRacGAP GTPase-activating activity inhibitors, confirmation, biochemical, ADP Hunter fluorescence, primary and confirmatory (AID 624330); assay type: functional
T4 sequence (Q9H0H5 whole entry): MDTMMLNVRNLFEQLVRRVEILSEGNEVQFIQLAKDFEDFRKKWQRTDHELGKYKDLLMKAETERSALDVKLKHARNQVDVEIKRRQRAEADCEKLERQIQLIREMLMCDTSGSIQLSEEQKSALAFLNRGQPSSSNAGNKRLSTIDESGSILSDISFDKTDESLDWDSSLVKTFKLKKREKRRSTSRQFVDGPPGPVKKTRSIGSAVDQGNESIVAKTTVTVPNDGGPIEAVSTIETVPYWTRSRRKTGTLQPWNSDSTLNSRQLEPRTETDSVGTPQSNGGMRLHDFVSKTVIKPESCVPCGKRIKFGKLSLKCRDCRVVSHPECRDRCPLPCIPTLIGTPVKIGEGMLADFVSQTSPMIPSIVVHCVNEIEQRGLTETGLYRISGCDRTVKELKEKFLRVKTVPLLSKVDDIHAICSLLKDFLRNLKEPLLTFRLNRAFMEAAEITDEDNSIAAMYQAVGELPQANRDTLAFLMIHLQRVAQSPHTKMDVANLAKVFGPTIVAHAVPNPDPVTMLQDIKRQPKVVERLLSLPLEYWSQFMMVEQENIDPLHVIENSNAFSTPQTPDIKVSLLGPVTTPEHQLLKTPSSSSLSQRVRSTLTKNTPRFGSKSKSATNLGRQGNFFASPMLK

[14] = Shn3 3'UTR reporter inhibitors, dose response, cell-based, Clone20 osteoblasts, firefly luciferase, cherry-picked (AID 624132); assay type: functional;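 also: firefly luciferase luminescence from reporter carrying the Shn3 3'UTR in osteoblasts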
[15] = target: T5, DNA repair and recombination protein RAD54-like (Homo sapiens, UniProt Q92698); experiment: inhibitors of human RAD54 branch migration, confirmation, biochemical, fluorescence, cherry-picked samples, dose series (AID 651657); assay type: functional
T5 sequence (Q92698 whole entry): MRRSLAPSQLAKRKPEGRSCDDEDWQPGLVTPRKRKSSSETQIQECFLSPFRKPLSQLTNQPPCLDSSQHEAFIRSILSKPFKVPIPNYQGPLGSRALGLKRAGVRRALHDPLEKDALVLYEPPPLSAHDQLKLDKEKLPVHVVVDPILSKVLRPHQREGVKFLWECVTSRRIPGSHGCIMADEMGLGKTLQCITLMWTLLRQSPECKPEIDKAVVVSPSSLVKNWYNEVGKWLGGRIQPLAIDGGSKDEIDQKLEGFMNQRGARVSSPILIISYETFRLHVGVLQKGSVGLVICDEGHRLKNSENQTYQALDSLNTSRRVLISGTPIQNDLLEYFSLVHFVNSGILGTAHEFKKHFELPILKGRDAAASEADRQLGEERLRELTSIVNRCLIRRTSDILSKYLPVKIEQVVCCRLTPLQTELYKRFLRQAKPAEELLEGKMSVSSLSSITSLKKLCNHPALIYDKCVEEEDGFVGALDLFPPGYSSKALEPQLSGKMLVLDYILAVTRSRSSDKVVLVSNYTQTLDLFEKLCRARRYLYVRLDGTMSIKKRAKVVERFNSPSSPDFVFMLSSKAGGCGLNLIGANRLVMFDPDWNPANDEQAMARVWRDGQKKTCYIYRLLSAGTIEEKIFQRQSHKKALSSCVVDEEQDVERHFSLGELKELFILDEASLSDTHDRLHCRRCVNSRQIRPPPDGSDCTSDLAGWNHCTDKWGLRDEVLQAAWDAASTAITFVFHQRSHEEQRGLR

[16] = target: T6, DNA repair protein RAD52 homolog (Homo sapiens, UniProt P43351); assay type: functional, biochemical
T6 sequence (P43351 whole entry): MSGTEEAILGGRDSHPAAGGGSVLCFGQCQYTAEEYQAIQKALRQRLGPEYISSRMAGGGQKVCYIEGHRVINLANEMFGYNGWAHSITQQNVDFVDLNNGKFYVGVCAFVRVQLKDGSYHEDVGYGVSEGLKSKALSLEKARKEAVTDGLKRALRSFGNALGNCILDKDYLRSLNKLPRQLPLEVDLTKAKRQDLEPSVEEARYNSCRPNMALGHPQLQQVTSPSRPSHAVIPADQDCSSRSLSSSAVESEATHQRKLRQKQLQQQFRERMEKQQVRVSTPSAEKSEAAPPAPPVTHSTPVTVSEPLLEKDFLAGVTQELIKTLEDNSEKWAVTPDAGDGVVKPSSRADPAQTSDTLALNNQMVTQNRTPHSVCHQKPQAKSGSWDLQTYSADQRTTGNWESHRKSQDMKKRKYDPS

[17] = DNA binding of candidate compounds, dose response, artefact control for RAD54 inhibitor project, biochemical, fluorescence polarization, cherry-pick (AID 651673); assay type: functional
Beta-lactamase [18] = target: T7, Beta-lactamase (Pseudomonas aeruginosa, UniProt Q79MP6); experiment: IMP-1 metallo-beta-lactamase inhibitors, dose response, selectivity assay for VIM-2 inhibitor project, biochemical, epi-absorbance (AID 1920)
Beta-lactamase [19] = target: T7, Beta-lactamase; experiment: […] counterscreen for selective VIM-2 inhibitors: dose response biochemical high throughput screening assay to identify inhibitors of IMP-1 metallo-beta-lactamase.
Beta-lactamase [20] = target: Beta-lactamase (Salmonella choleraesuis (strain SC-B67), UniProt Q5J463); experiment: Epi-absorbance-based counterscreen for selective VIM-2 inhibitors: dose response biochemical high throughput screening assay to identify inhibitors of TEM-1 serine-beta-lactamase.
Cytochrome P450 2C9 = Cytochrome P450 2C9 (Homo sapiens, UniProt P11712)
[21] = HeLa cell cytotoxicity, dose response, cytotoxicity control for MgcRacGAP inhibitor project (AID 624300); assay type: functional

T7 sequence (Q79MP6 whole entry): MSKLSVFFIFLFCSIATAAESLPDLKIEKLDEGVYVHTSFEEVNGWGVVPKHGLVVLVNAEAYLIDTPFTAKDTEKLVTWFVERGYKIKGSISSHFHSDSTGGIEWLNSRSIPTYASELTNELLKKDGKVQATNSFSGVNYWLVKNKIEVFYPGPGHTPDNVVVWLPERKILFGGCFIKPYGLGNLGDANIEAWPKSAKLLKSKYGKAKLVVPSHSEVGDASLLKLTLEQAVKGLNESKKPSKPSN
T3 sequence (P0DPI1 2-448 limits assumed): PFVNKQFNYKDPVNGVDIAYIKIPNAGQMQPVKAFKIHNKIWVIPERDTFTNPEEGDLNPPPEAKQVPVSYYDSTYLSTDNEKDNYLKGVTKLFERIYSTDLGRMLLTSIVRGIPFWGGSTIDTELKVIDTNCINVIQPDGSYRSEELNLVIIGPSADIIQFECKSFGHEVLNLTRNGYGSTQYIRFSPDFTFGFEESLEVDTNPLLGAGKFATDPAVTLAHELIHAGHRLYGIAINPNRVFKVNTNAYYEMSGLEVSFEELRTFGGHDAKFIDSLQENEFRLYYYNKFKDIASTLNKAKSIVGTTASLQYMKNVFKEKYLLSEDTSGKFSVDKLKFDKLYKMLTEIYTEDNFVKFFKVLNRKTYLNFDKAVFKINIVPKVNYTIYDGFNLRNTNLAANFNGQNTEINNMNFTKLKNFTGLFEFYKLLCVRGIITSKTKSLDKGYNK
Botulinum neurotoxin type F, sequence (P30996 1-436 limits assumed): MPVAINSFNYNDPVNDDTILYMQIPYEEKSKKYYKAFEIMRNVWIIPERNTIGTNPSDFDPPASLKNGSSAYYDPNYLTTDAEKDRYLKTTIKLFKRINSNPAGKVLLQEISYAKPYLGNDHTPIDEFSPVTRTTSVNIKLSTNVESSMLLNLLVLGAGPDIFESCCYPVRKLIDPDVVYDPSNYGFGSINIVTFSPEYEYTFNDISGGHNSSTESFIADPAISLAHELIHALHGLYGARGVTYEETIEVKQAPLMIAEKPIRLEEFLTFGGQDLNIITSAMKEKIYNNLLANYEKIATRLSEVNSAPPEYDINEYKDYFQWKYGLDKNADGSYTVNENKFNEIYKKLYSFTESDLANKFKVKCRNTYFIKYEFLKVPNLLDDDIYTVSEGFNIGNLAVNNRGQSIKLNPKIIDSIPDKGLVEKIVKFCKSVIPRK
Cytochrome P450 2C9, sequence (P11712 whole entry): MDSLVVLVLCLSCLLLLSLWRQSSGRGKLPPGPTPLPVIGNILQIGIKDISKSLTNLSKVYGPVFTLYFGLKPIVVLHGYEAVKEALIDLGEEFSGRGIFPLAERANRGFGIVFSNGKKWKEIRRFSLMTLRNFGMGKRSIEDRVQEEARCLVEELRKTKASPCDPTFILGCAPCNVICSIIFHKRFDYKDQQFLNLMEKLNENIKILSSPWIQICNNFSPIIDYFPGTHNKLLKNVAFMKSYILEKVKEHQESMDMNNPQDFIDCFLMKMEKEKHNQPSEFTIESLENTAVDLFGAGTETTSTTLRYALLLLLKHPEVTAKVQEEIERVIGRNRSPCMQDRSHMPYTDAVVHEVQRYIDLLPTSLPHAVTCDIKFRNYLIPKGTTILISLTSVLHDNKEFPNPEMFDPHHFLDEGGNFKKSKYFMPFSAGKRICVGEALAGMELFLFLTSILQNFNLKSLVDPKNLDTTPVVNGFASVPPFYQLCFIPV
Beta-lactamase (Salmonella choleraesuis (strain SC-B67), UniProt Q5J463), sequence (Q5J463 whole entry): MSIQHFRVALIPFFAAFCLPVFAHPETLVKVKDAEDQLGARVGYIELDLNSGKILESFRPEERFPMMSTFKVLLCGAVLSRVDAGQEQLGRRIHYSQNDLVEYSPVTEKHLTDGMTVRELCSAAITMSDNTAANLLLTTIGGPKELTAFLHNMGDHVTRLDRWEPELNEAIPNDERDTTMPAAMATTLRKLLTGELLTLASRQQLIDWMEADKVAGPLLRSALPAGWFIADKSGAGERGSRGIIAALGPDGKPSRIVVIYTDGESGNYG
Lethal factor, sequence (P15917 whole entry): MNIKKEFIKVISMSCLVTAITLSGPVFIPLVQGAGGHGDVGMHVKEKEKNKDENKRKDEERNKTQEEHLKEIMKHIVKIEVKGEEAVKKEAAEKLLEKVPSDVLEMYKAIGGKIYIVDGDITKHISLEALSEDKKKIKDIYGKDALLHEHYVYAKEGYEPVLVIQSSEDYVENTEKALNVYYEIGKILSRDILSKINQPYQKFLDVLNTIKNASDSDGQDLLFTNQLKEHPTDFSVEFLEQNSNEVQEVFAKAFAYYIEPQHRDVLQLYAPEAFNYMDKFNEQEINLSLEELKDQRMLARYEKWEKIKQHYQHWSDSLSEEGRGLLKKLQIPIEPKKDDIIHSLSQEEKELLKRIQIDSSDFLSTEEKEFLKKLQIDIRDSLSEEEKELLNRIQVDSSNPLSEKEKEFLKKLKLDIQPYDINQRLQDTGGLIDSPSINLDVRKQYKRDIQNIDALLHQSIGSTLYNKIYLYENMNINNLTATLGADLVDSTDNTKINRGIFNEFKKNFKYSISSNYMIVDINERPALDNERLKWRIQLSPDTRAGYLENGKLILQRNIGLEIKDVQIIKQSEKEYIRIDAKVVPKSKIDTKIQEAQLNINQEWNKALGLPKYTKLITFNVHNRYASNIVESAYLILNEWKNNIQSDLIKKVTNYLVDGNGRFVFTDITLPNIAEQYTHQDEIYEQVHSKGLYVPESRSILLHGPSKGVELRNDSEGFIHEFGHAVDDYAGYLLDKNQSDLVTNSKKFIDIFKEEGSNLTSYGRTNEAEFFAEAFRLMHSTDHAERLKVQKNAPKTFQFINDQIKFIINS

CCC(CO)Oc1cc(NCc2cccc(C)c2)c2ncn(C(C)C)c2c1 (stereo not given)
active: IC50 [1] 12.6 µM | IC50 [2] 14 µM | IC50 (Caspase-3) 46.6 µM

Cc1ccc(-c2cn3nc(-c4ccccc4)c(-c4ccccc4)nc3n2)cc1
active: EC50 [3] 1.5 µM | EC50 [4] 2.5 µM | EC50 (Lethal factor) 2 µM | EC50 [5] 9.1 µM

CCOc1cc(/C=C2\CN(CC)C/C(=C\c3ccc(O)c(OCC)c3)C2=O)ccc1O
active: EC50 (BJ [6]) 4.09 µM | AC50 [7] 14.7 µM | EC50 (BJ [9]) 0.583 µM | AC50 [10] 9.14 µM | EC50 [11] 3.65 µM | AC50 [12] 12.5 µM | IC50 [13] 46.6 µM | AC50 [14] 2.12 µM
inconclusive: EC50 (BJ [8]) 3.15 µM

COc1ccc(-c2nc(NCCCN(C)C)c3ccccc3n2)cc1
active: AC50 [15] 6 µM | AC50 [16] 2.39 µM | AC50 [17] 46.8 µM

CCCCn1c(S)nnc1-c1nn(C)cc1Cl
inactive: IC50 (Beta-lactamase [18]) > 59.6 µM | IC50 (Beta-lactamase [19]) > 59.6 µM | IC50 (Beta-lactamase [20]) > 59.6 µM

CN(C)CCCN1c2ccc3ccccc3c2Sc2cccc(Cl)c21
inconclusive: AC50 (Cytochrome P450 2C9) 7.94 µM
active: CC50 [21] 42.8 µM | IC50 [13] 48.9 µM
